From patent publication US20070066629A1 come the findings set out here.

Where two headings read alike, the source gives them in different places.

In the experiment the test system is Corticium solani (syn. Rhizoctonia sasakii). As to conditions: individual active compound, rice, evaluated after 11 days, untreated control 81% infection.

Procedure: 1% by weight of the emulsifier Uniperol® EL (wetting agent having emulsifying and dispersing action based on ethoxylated alkylphenols) was added to this solution, and the solution was diluted with water to the desired concentration.
The next day, oat grains infected with Corticium solani were placed into the pots (in each case 5 grains per pot). The plants were then placed in a chamber at 26° C. and maximum atmospheric humidity.
Evaluation is carried out by determining the infected leaf areas in percent. These percentages were converted into efficacies.
The efficacy (E) is calculated as follows using Abbot's formula: E=(1−α/β)*100 α corresponds to the fungicidal infection of the treated plants in % and β corresponds to the fungicidal infection of the untreated (control) plants in %
An efficacy of 0 means that the infection level of the treated plants corresponds to that of the untreated control plants; an efficacy of 100 means that the treated plants were not infected.

`CC1CCN(c2c(-c3c(F)cccc3Cl)c(Cl)nc3ncnn23)CC1` [A]: the “Efficacy in % of the untreated control” value (1 ppm in the spray liquor) is 26%.

Turning to `CO/C=C(/C(=O)OC)c1ccccc1Oc1cc(Oc2ccccc2C#N)ncn1` [I (azoxystrobin), azoxystrobin], the “Efficacy in % of the untreated control” value (1 ppm in the spray liquor) is given as 1% and the “Efficacy in % of the untreated control” value (4 ppm in the spray liquor) was found to be 26%. In the case of `CC1CCN(c2c(-c3c(F)cc(F)cc3F)c(Cl)nc3ncnn23)CC1` [II, 5-chloro-7-(4-methylpiperidin-1-yl)-6-(2,4,6-trifluorophenyl)-[1,2,4]triazolo[1,5-a]pyrimidine], the “Efficacy in % of the untreated control” value (1 ppm in the spray liquor) was found to be 26%.
